From patent US6194387A, “6-O-aklyl erythromycin B oxime” (Abbott Laboratories, priority 1999, dated 2001)
Read-outs that look alike come from different tables or passages of the source.

Tests used:
[1] = system: M[…]; assay: in vitro antibacterial activity, agar dilution MIC; type: cell-based, Micrococcus pyogenes; settings: Staphylococcus aureus, ATCC9341
Procedure: (§1) 6-O-Methyl-9-oxime erythromycin B prepared in accordance with Examples 1 and 2 was assayed in vitro for anitbacterial activity as follows: Twelve petri dishes containing successive aqueous dilutions of the test compound mixed with 10 mL of sterilized Brain Heart Infusion (BHI) agar (Difco 0418-01-5) were prepared. Each plate was inoculated with 1:100 (or 1:10 for slow-growing strains, such as Micrococcus and Streptococcus) dilutions of up to 32 different micoorganisims, using a Steers replicatore block. The inoculated plates were incubated at 35-37° C. for 20 to 24 hours. In addition, a control plate, using BHI agar containing no test compound, was prepared and incubated at the beginning and end of each test.
(§2) An additional plate containing a compound having known susceptibility patterns for the organisms being tested and belonging to the same antibiotic class as the test compound was also prepared and incubated as further control, as well as to provide test-to-test comparability. Erythromycin A was used for this purpose.
(§3) After incubation, each disk was read. The minimum inhibitory concentration (MIC) was defined as the lowest concentration of drug yielding no growth, a slight haze, or sparsely isolated colonies on the inoculum spot as compared to the growth control.

[2] = system: micoorganisims; assay: in vitro antibacterial activity, overall conclusion; type: cell-based
Procedure: as §1, §2, §3

[3] = system: EN[…]; assay: in vitro antibacterial activity, agar dilution MIC; type: cell-based, Enterobacter aerogenes; settings: Klebsiella aerogenes, ATCC13048
Procedure: as §1, §2, §3

[4] = system: ESCHERICHIA COLI; assay: microbe, parasite or virus in culture; type: cell-based
Procedure: as §1, §2, §3

[5] = system: CANDIDA ALBICANS; assay: in vitro antimicrobial activity, agar dilution MIC; type: cell-based; settings: Table 2, CCH 442, read-out: MIC
Procedure: as §1, §2, §3

[6] = system: PSEUDOMONAS AERUGINOSA; assay: in vitro antibacterial activity, agar dilution MIC; type: cell-based
Procedure: as §1, §2, §3

[7] = system: M[…]; assay: in vitro antibacterial activity, agar dilution MIC; type: cell-based; settings: Micrococcus luteus, ATCC4698
Procedure: as §1, §2, §3

[8] = system: STAPHYLOCOCCUS BOVIS; assay: in vitro antibacterial activity, agar dilution MIC; type: cell-based; settings: Table 2, A-5169, read-out: MIC
Procedure: as §1, §2, §3

[9] = system: STAPHYLOCOCCUS PNEUMONIAE; assay: in vitro antibacterial activity, agar dilution MIC; type: cell-based
Procedure: as §1, §2, §3

[10] = system: STAPHYLOCOCCUS PYOGENES; assay: in vitro antibacterial activity, agar dilution MIC; type: cell-based
Procedure: as §1, §2, §3

[11] = system: PSEUDOMONAS CEPACIA; assay: in vitro antibacterial activity, agar dilution MIC; type: cell-based; settings: Burkholderia cepacia; Table 2; 2961; read-out: MIC
Procedure: as §1, §2, §3

[12] = system: HAEMOPHILUS INFLUENZAE; assay: in vitro antibacterial activity, agar dilution MIC; type: cell-based
Procedure: as §1, §2, §3

[13] = system: STAPHYLOCOCCUS AUREUS; assay: in vitro antibacterial activity, agar dilution MIC; type: cell-based
Procedure: as §1, §2, §3

[14] = system: ACINETOBACTER CALCOACETICUS; assay: in vitro antibacterial activity, agar dilution MIC; type: cell-based; settings: Table 2, CMX 669, read-out: MIC
Procedure: as §1, §2, §3

[15] = system: STAPHYLOCOCCUS EPIDERMIDIS; assay: in vitro antibacterial activity, agar dilution MIC; type: cell-based; settings: Table 2, 3519, read-out: MIC
Procedure: as §1, §2, §3

[16] = system: NOCARDIA ASTEROIDES; assay: in vitro antibacterial activity, agar dilution MIC; type: cell-based; settings: ATCC9970, Table 2, ATCC 9970, read-out: MIC
Procedure: as §1, §2, §3

[17] = system: EN[…]; assay: in vitro antibacterial activity, agar dilution MIC; type: cell-based; settings: Enterococcus faecium, ATCC8043
Procedure: as §1, §2, §3

[18] = system: MYCOBACTERIIUM SMEGMATIS; assay: in vitro antibacterial activity, agar dilution MIC; type: cell-based; settings: Table 2; ATCC 114; read-out: MIC
Procedure: as §1, §2, §3

[19] = system: KLEBSIELLA PNEUMONIAE; assay: in vitro antibacterial activity, agar dilution MIC; type: cell-based; settings: ATCC8045, Table 2, ATCC 8045, read-out: MIC
Procedure: as §1, §2, §3

[20] = system: PROVIDENCIA STUART II; assay: in vitro antibacterial activity, agar dilution MIC; type: cell-based; settings: Table 2, CMX 640, read-out: MIC
Procedure: as §1, §2, §3

CC[C@H]1OC(=O)[C@H](C)[C@@H](O[C@H]2C[C@@](C)(OC)[C@@H](O)[C@H](C)O2)[C@H](C)[C@@H](O[C@@H]2O[C@H](C)C[C@H](N(C)C)[C@H]2O)[C@](C)(OC)C[C@@H](C)C(=NO)[C@H](C)[C@@H](O)[C@H]1C [6-O-Methyl-9-oxime erythromycin B]
0.03 µg/mL: MIC ([9]; Table 3, GYR 1171, read-out: MIC) | MIC ([10]; Table 3, EES61, read-out: MIC)
0.1 µg/mL: MIC [16] | MIC [17]
0.02 µg/mL: MIC ([10]; Table 2, EES61, read-out: MIC)
16 µg/mL: MIC ([9]; Table 3, 5649, read-out: MIC) | MIC ([9]; Table 3, 5654, read-out: MIC) | MIC ([10]; Table 3, PIU 2548, read-out: MIC) | MIC ([12]; ATCC10211, Table 3, ATCC 10211, read-out: MIC) | MIC ([12]; Table 3, CMX 503B, read-out: MIC) | MIC ([12]; Table 3, CMX 504, read-out: MIC) | MIC ([12]; Table 3, CMX 519A, read-out: MIC) | MIC ([12]; Table 3, CMX 566A, read-out: MIC) | MIC ([12]; Table 3, CMX 588A, read-out: MIC) | MIC ([12]; Table 3, CMX 747C, read-out: MIC) | MIC ([12]; Table 3, GYR 1435, read-out: MIC) | MIC ([12]; Table 3, SOL AMP R, read-out: MIC) | MIC ([12]; Table 3, SPK AMP R, read-out: MIC)
100 µg/mL: MIC ([4]; Table 2, H560) | MIC ([4]; Table 2, KNK 437)
1 µg/mL: MIC ([12]; Table 3, GYR 1177, read-out: MIC)
> 100 µg/mL: MIC [3] | MIC ([4]; Table 2, DC-2) | MIC [5] | MIC ([6]; Table 2, 5007, read-out: MIC) | MIC ([6]; Table 2, DPHD-2862, read-out: MIC) | MIC ([6]; Table 2, DPHD-5263, read-out: MIC) | MIC ([10]; Table 2, 930) | MIC [11] | MIC ([13]; Table 2, A-5278, read-out: MIC) | MIC [19] | MIC [20]
1.56 µg/mL: MIC ([6]; Table 2, K799/61, read-out: MIC)
32 µg/mL: MIC ([12]; ATCC19418, Table 3, ATCC 19418, read-out: MIC) | MIC ([12]; Table 3, CMX 751, read-out: MIC)
50 µg/mL: MIC ([4]; Table 2, JUHL) | MIC [14]
6.2 µg/mL: MIC ([10]; Table 2, PIU 2548, read-out: MIC) | MIC ([13]; Table 2, A5177, read-out: MIC)
0.39 µg/mL: MIC ([13]; ATCC6538P, Table 2, ATCC 6538P, read-out: MIC) | MIC ([13]; Table 2, NCTC10649M, read-out: MIC) | MIC [15] | MIC [18]
0.05 µg/mL: MIC [1] | MIC [8]
effective antibacterial agent: antibacterial activity (conclusion from Tables 2 and 3) [2]
8 µg/mL: MIC ([12]; ATCC43095, Table 3, ATCC 43095, read-out: MIC) | MIC ([12]; Table 3, CMX 632A, read-out: MIC)
> 128 µg/mL: MIC ([9]; Table 3, 5728, read-out: MIC) | MIC ([9]; Table 3, 5737, read-out: MIC) | MIC ([9]; Table 3, 5979, read-out: MIC) | MIC ([10]; Table 3, 930, read-out: MIC)
0.78 µg/mL: MIC ([4]; Table 2, SS) | MIC [7] | MIC ([13]; Table 2, CMX 553, read-out: MIC) | MIC ([13]; Table 2, CMX 642A, read-out: MIC)
